Data from patent US12716889B2, “Microfluidic-based device for in vivo wound infection model and uses thereof” (The Hong Kong Polytechnic University, priority 2021, dated 2026).

Test system: P. aeruginosa (PAO1) biofilm
Assay: Viable cell counts (CFU) from biofilm on infected tail wound of Medaka fish in the MicroFish device
Type: in vivo, Pseudomonas aeruginosa
Details: ciprofloxacin monotherapy at 0, 0.05, 1, 5, 10 μg ml^−1 added to fish-microbe co-cultures; FIG. 5E
Experimental: After harvesting the tails from euthanized animals after bacterial infection, the tissues were resuspended in 100 μl sterilized 0.9% (w/v) NaCl saline and ground manually by pellet pestle in 1.5-ml-microcentrifuge tubes (JET BIOFIL, China) until homogenization. The homogenized samples were diluted serially in 0.9% NaCl and then spread on centrimide agar (selective only for Pseudomonad growth) (Sigma-Aldrich, Germany). After incubation at 37° C. for 16 hrs, the colonies grown on the plates were enumerated. The CFU ml^−1 was tabulated by colony number×dilution factor[…]. Experiments were performed in triplicates, and the results are shown as mean±S.D.

SMILES: O=C(O)c1cn(C2CC2)c2cc(N3CCNCC3)c(F)cc2c1=O [ciprofloxacin]
- biofilm viability (viable cell counts, CFU): lower biofilm viability
